pIC50: −log10 of the molar value. Where a SMILES comes first, the peptide text is derived from it. Where no end group is shown, it is not given here.
How the values were obtained:
GPIb [1] = target: T1, GPIb (Homo sapiens, UniProt P07359); test: Inhibition of 125I-asialo-vWF binding to fresh platelets by peptides
T1 construct: endogenous in cells; host or cells: fresh or formalin-fixed platelets
Description: To test the inhibitions of asialo-vWF binding to platelets, fresh platelets were used. These were prepared by drawing blood into 11 millimolar trisodium citrate and 2 millimolar EDTA. Platelet-rich plasma was then prepared by differential centrifugation. The platelet count was then adjusted to 1 x 10¹¹/liter. Peptides were then added to various concentrations and ¹²⁵I-asialo-vWF was then added at a final concentration of 5 micrograms/ml. After incubation for 30 minutes at room temperature bound and free ligand were separated by centrifuging 50 microliters of the mixture through 300 microliters of 20% sucrose at 12,000 x g for 4 minutes. The platelet pellet was then separated from the rest of the mixture to determine platelet-bound radioactivity. Non-specific binding was defined as the residual binding of ¹²⁵I-asialo-vWF in the presence of a 50-fold excess of unlabeled vWF but in the absence of any peptides.
Percent inhibition with a given peptide was calculated by dividing the specific cpm obtained when various concentrations of peptide were added by the specific cpm in the absence of peptide. The IC₅₀'s (concentration of peptide which inhibited binding by 50%) for the peptides tested were as follows: […]

GPIb [2] = target: T1, GPIb; test: Inhibition of ristocetin-induced binding of 125I-vWF to formalin-fixed platelets by peptides; settings: formalin-fixed platelets 1 x 10¹¹/liter, 125I-vWF 5 micrograms/ml, ristocetin 1.0 mg/ml, 30 minutes room temperature; read-out: IC₅₀ (concentration of peptide which inhibited binding by 50%)
Description: To test the inhibition of ristocetin-induced binding of vWF to platelets by peptides, formalin-fixed platelets were used at a final concentration of 1 x 10¹¹/liter. Peptides to be tested were then added at various concentrations. One third final volume of vWF deficient plasma was then added followed by ¹²⁵I-vWF a final concentration of 5 micrograms/ml. Ristocetin was then added at a concentration of 1.0 mg/ml. After incubation for 30 minutes at room temperature bound and free ligand were separated by centrifuging 50 microliters of the mixture through 300 microliters of 20% sucrose at 12,000 x g for 4 minutes. The platelet pellet was then separated from the rest of the mixture to determine platelet-bound radioactivity. Nonspecific binding was defined as the residual binding of ¹²⁵I-vWF in the presence of a 50-fold excess of unlabeled vWF but in the absence of any peptides.
Percent inhibition with a given peptide was calculated by […]. The IC₅₀'s (concentration of peptide which inhibited binding by 50%) for the peptides tested were as follows: […]

[3] = fresh platelets 1 x 10¹¹/liter, 125I-asialo-vWF 5 micrograms/ml, 30 minutes room temperature, read-out: IC₅₀ (concentration of peptide which inhibited binding by 50%)

T1 sequence (P07359 17-652): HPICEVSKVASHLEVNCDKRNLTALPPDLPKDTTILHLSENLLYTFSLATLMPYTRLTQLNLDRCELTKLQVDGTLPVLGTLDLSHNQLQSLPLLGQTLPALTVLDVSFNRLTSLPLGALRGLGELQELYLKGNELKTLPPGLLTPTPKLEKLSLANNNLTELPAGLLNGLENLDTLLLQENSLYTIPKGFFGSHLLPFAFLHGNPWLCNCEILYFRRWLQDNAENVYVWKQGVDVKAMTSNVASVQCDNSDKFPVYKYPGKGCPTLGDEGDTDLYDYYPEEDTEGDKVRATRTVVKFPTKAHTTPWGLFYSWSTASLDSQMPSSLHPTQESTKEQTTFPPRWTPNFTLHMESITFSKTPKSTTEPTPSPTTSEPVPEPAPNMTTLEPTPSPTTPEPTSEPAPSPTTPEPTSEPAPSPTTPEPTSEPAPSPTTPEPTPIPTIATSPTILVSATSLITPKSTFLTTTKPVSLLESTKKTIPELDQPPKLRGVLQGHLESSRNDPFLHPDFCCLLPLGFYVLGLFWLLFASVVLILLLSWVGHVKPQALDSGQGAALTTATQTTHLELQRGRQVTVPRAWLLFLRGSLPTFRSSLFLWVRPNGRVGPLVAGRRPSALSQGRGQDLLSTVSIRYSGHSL
T1 sequence (P13224 26-206 partner): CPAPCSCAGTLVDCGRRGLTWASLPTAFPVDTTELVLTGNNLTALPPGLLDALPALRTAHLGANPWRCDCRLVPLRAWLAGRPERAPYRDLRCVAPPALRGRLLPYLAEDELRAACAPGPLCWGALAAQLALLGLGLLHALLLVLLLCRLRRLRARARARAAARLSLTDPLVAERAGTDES
T1 sequence (P14770 17-177 partner): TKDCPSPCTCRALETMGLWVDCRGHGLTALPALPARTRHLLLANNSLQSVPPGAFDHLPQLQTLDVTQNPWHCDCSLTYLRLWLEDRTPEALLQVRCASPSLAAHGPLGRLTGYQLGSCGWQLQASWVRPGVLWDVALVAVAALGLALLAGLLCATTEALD

Compound	pIC50 (GPIb [1]; [3])	pIC50 (GPIb [2])	pIC50 (GPIb [1])
KRKRKR [(KR)₃]	4.64	3.92	
KRKRKRKRGDV [(KR)₄GDV]	4.82	4.80	
YRGDV [YRGDV, reference compound]		< 3.22	
N=C(N)NCCC[C@H](NC(=O)[C@H](CCCCN)NC(=O)[C@H](CCCNC(=N)N)NC(=O)[C@@H](N)CCCCN)C(=O)O [(KR)₂] (H-KRKR-OH)		3.70	
RRRRRRRRGDV [(R)₈GDV]		5.22	5.46
